Literature values, collected in patent US20050250804A1, “Pharmaceutical gel formulations” (Glenmark Pharmaceuticals Limited, priority 2004, published 2005).

Experiments:
human subjects = settings: repeated insult patch test, 50 human subjects, total of 15 applications; manufacturer's brochure
[1] = test system: Interleukin-2, interferon gamma, Interleukin-4 and Interleukin-10 cytokine synthesis in human T cells

Row | Structure (SMILES) | PII (rabbit skin) | skin irritation (rabbit skin) | primary dermal irritation / sensitization (human subjects) | concentration inhibiting IL-2, interferon gamma (Th1-type), IL-4 and IL-10 (Th2-type) cytokine synthesis [1]
1 | CN1CCCC1=O [Pharmasolve®, N-methyl-2-pyrrolidone] | 0.5 | practically nonirritating | neither a primary dermal irritant nor a sensitizer | –
2 | CC[C@@H]1/C=C(\C)C[C@H](C)C[C@H](OC)[C@H]2O[C@@](O)(C(=O)C(=O)N3CCCC[C@H]3C(=O)O[C@H](/C(C)=C/[C@@H]3CC[C@H](Cl)[C@H](OC)C3)[C@H](C)[C@@H](O)CC1=O)[C@H](C)C[C@@H]2OC [pimecrolimus, (1R,9S,12S,13R,14S,17R,18E,21 S,23S,24R,25S,27R)-12-[(1E)-2-{(1R,3R,4S)-4-chloro-3-methoxycyclohexyl}-1-methylvinyl]-17-ethyl-1,14-dihydroxy-23,25-dimethoxy-13,19,21,27-tetramethyl-11,28-dioxa-4-aza-tricyclo[22.3.1.04,9]octacos-18-ene-2,3,10,16-tetraone] | – | – | – | nanomolar concentrations
